Measurements as given in BindingDB's records for doi:10.1016/j.bmcl.2013.01.064 (Bristol Myers Squibb, 2013).

Target: Potassium voltage-gated channel subfamily A member 5 (Homo sapiens, UniProt P22460)
Assay: Antagonist activity at human Kv1.5 expressed in mouse L929 cells assessed as inhibition of delayed rectifier repolarization current by patch clamp assay

Sequence of Potassium voltage-gated channel subfamily A member 5 (P22460 whole entry): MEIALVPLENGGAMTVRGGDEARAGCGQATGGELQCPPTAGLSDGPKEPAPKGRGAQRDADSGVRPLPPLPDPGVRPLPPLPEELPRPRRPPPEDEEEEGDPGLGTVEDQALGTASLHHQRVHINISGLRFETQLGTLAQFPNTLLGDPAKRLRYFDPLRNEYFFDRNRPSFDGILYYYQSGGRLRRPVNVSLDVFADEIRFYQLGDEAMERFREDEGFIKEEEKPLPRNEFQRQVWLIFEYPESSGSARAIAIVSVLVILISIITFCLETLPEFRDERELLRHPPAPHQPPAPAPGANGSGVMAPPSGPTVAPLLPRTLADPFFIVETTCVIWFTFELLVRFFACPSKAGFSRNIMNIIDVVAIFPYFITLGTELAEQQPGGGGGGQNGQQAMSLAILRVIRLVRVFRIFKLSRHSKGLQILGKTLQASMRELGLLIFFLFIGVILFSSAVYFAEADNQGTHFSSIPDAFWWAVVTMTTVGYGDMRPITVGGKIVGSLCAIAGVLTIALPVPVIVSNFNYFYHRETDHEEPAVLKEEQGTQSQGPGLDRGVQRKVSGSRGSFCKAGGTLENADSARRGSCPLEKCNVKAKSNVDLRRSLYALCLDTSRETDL

IC50 | Structure (SMILES)
223 nM | CC1=Nc2ccnn2[C@H](c2ccc(Cl)c(Cl)c2)C1c1ncnn1C(C)(C)C (stereo partly drawn)
607 nM | CC1=Nc2cc(C(F)(F)F)nn2[C@H](c2ccc(Cl)c(Cl)c2)C1c1ncnn1C1CCC(C(F)(F)F)CC1 (stereo partly drawn)
223 nM | CCOc1cccc(-n2ncnc2C2C(C)=Nc3cc(C(F)(F)F)nn3[C@@H]2c2ccc(Cl)c(Cl)c2)n1 (stereo partly drawn)
